One series has as its system Rattus norvegicus. Description: Toxicity in Wistar rat at 3 mg/kg. The class given is organism-based. Details: dose 3 mg/kg. As to conditions: in vivo.
A further series deals with Mus musculus. Nature of the series: Toxicity in mouse at 3 mg/kg, ip. The class given is organism-based. Also noted: dose 3 mg/kg, route intraperitoneal. Conditions: in vivo.

The structures appear in SMILES notation.

On to `C=C1[C@@H]2CC[C@H]3[C@]4(C)C[C@H](O[C@@H]5O[C@H](CO)[C@@H](O)[C@H](O)[C@H]5OC(=O)CC(C)CC)CC(C(=O)O)(C(=O)O)[C@H]4CC[C@]3(C2)[C@H]1O` (some centres undefined), for which the Activity entry with Rattus norvegicus and with Mus musculus was “Toxic” in each case.

In the case of `C=C1[C@@H]2CC[C@H]3[C@]4(C)C[C@H](O[C@@H]5O[C@H](CO)[C@@H](O)[C@H](O)[C@H]5OC(=O)CC(C)C)CC(C(=O)O)(C(=O)O)[C@H]4CC[C@]3(C2)[C@H]1O`, the Activity result with Rattus norvegicus and in the series on Mus musculus was “Toxic” throughout.

The values above are taken from ChEMBL document CHEMBL1150178, “Two toxic kaurene glycosides from the burrs of Xanthium pungens” (J Nat Prod, 1990).
